# In paper PMC7288428, “Amaryllidaceae alkaloids with anti-Trypanosoma cruzi activity” (Parasites & Vectors, 2020):
# “And” between values parts separate entries of the source, which are not always exact repeats. Equal values may be shown once. Where a name gives a salt, the structure may show the parent alone. Read-outs that look alike come from different tables or passages of the source.
# What was measured:
# [1] = system: T. cruzi intracellular amastigote forms; assay: Anti-amastigote specific activity assay (Vero host cells); assay type: cell-based; details: Trypanosoma cruzi, 96 h, read-out: anti-amastigote activity (IC50)
# Vero cells = assay: Vero cell toxicity assay (Alamar Blue); details: 4 days, mean (SD in text)
# HepG2 cells [2] = assay: HepG2 cell toxicity assay (Alamar Blue); details: 2 days, mean (SD in text)
# T. cruzi [3] = system: T. cruzi; parameters: method as in PMID 9810280, PMID 11301878, PMID 22673940; details: L6 cells as host; cited from earlier work
# protozoa = system: protozoa; parameters: method as in ref 28, 29 = [28]; PMID 15541744; doi:10.1016/j.phytochem.2004.10.004; 28. Machocho AK Bastida J Codina C Viladomat F Brun R Chabra SC Augustamine type alkaloids from Crinum kirkii Phytochemistry. 2004 65 3143 3149 15541744 10.1016/j.phytochem.2004.10.004 || [29]; 29. Osorio EJ Berkov S Brun R Codina C Viladomat F Cabezas F In vitro antiprotozoal activity of alkaloids from Phaedranassa dubia (Amaryllidaceae) Phytochem Lett. 2010 3 161 163; details: cited from earlier work
# ZIKA virus [4] = system: ZIKA virus; parameters: method as in PMID 28736217; details: human forebrain organoids; cited from earlier work
# ZIKA virus [5] = system: ZIKA virus; parameters: method as in PMID 28736217; details: cited from earlier work
# ZIKA virus [6] = system: ZIKA virus; parameters: method as in PMID 28736217; details: cited from earlier work; remark: listed apart in the source
# T. cruzi [7] = system: T. cruzi; parameters: method as in earlier work; details: cited from earlier work
# HepG2 cells [8] = system: HepG2 cells; parameters: method as in PMID 7701000; details: cited from earlier work
# [9] = system: avian influenza virus H5N1; details: read-out: IC50 against avian influenza virus H5N1; cited from earlier work
# [10] = system: trypomastigotes from the T. cruzi strain Tulahuen C4; parameters: method as in ref 28 = [28]; PMID 15541744; doi:10.1016/j.phytochem.2004.10.004; 28. Machocho AK Bastida J Codina C Viladomat F Brun R Chabra SC Augustamine type alkaloids from Crinum kirkii Phytochemistry. 2004 65 3143 3149 15541744 10.1016/j.phytochem.2004.10.004; details: cited from earlier work
smiles,measurement,setting,value
"O=C(Cn1ccnc1[N+](=O)[O-])NCc1ccccc1 [BNZ, benznidazole, reference compound]",IC50,"[1]; intracellular amastigotes in Vero cells, mean (SD)",1.2 µM
same,"TC50, Vero cell toxicity assay",Vero cells,173.4 (43.57) µM and 173.4 µM
same,"TC50, HepG2 cell toxicity assay",HepG2 cells [2],168.76 µM
"O[C@H]1[C@H]2c3cc4c(cc3CN3CCC(=C[C@@H]1O)[C@H]23)OCO4 [Lycorine, lycorine]",activity against T. cruzi in previous studies,T. cruzi [3],inactive
same,"TC50, Vero cell toxicity assay",Vero cells,5.21 µM
same,"TC50, Vero cell toxicity assay",Vero cells; listed as lycorine,5.21 (0.80) µM
same,"TC50, HepG2 cell toxicity assay",HepG2 cells [2],21.87 µM
same,"TC50, HepG2 cell toxicity assay",HepG2 cells [2]; listed as lycorine,21.87 (4.16) µM
"C[C@H]1O[C@@H](O[C@H]2[C@@H](O)C[C@H](O[C@H]3[C@@H](O)C[C@H](O[C@H]4CC[C@@]5(C)[C@H](CC[C@@H]6[C@@H]5CC[C@]5(C)[C@@H](C7=CC(=O)OC7)CC[C@]65O)C4)O[C@@H]3C)O[C@@H]2C)C[C@H](O)[C@@H]1O [digitoxin, reference compound]","TC50, HepG2 cell toxicity assay",HepG2 cells [2],0.29 (0.14) µM
CC(=O)O[C@@H]1CC=C2CCN3Cc4cc5c(cc4[C@H]1[C@@H]23)OCO5 [1-O-acetylcaranine],antiprotozoal activity described before,protozoa,poor antiprotozoal agents
"CO[C@H]1C=C2[C@H]3C[N@@](Cc4cc5c(cc43)OCO5)[C@H]2C[C@@H]1O [Montanine, montanine]","TC50, Vero cell toxicity assay",Vero cells,5.04 µM
same,"TC50, HepG2 cell toxicity assay",HepG2 cells [2],46.10 µM
same,"TC50, HepG2 cell toxicity assay",HepG2 cells [2]; listed as montanine,46.1 (11.99) µM
CN1CCC2=C[C@H](O)[C@H]3OC(=O)c4cc5c(cc4[C@H]3[C@@H]21)OCO5 [hippeastrine hydrobromide],effect on ZIKV-induced microcephaly phenotype,ZIKA virus [4],recover a ZIKV-induced microcephaly phenotype in human forebrain organoids
same,effect on virus propagation in infected adult mice,ZIKA virus [5],suppress virus propagation in infected adult mice
same,effect on ZIKA virus in infected human neural progenitors,ZIKA virus [6],remove ZIKA virus from infected human neural progenitors
"CN1CC[C@@]23C=C[C@H](O)C[C@@H]2Oc2c(O)ccc(c23)C1 [Sanguinine, sanguinine]",antiprotozoal activity described before,protozoa,poor antiprotozoal agents
"COC1C=CC23c4cc5c(cc4CN(CC2O)C3C1)OCO5 (centres unmarked) [Haemanthamine, haemanthamine]",IC50 against T. cruzi,T. cruzi [7],1.8 µg/mL
same,IC50,"T. cruzi [7]; converted from µg/ml, read-out: IC50 against T. cruzi",5.97 µM
same,"TC50, Vero cell toxicity assay",Vero cells,11.52 µM
same,TC50 for HepG2 cells,HepG2 cells [8],13 µg/mL
same,TC50 for HepG2 cells,HepG2 cells [8]; converted from µg/ml,43.14 µM
same,"TC50, HepG2 cell toxicity assay",HepG2 cells [2],42.48 (6.96) µM and 42.48 µM
"CO[C@@H]1C=C[C@@]23c4cc5c(cc4CO[C@]2(O)CN(C)[C@H]3C1)OCO5 [Tazettine, tazettine]",antiprotozoal activity described before,protozoa,poor antiprotozoal agents
"CN1CCC2=C[C@H](O)[C@H]3OC(=O)c4cc5c(cc4[C@H]3[C@@H]21)OCO5 [Hippeastrine, hippeastrine]",IC50,[1]; Vero,3.31 µM
same,"TC50, Vero cell toxicity assay",Vero cells,45.99 µM
same,"TC50, Vero cell toxicity assay",Vero cells; listed as hippeastrine,45.99 (6.32) µM
same,TC50 for HepG2 cells,HepG2 cells [8],40 µg/mL
same,TC50 for HepG2 cells,HepG2 cells [8]; converted from µg/ml,126.85 µM
same,IC50,[9],47.5 µM
same,"TC50, HepG2 cell toxicity assay",HepG2 cells [2],128.10 µM
same,"TC50, HepG2 cell toxicity assay",HepG2 cells [2]; listed as hippeastrine,128.1 (12.26) µM
"O=C1N[C@@H]2C(=C[C@H](O)[C@@H](O)[C@H]2O)c2cc3c(c(O)c21)OCO3 [Narciclasine, narciclasine]","TC50, Vero cell toxicity assay",Vero cells,0.66 µM
same,"TC50, Vero cell toxicity assay",Vero cells; listed as narciclasine,0.66 (0.082) µM
same,"TC50, HepG2 cell toxicity assay",HepG2 cells [2],2.73 µM
same,"TC50, HepG2 cell toxicity assay",HepG2 cells [2]; listed as narciclasine,2.73 (0.67) µM
CC(=O)O[C@H]1C=C[C@@]23CCN(C)Cc4ccc(O)c(c42)O[C@H]3C1 [3-O-acetylsanguinine],IC50 against trypomastigotes,[10],2.3 µg/mL
same,IC50,"[10]; converted from μg/ml, read-out: IC50 against trypomastigotes",7.29 µM
